Laboratory results published in patent US20230348444A1, “NOVEL COMPOUNDS FOR USE IN THE TREATMENT OF DISEASES ASSOCIATED WITH ANGIOTENSIN II” (Vicore Pharma AB, priority 2020, published 2023).
Read-outs that look alike come from different tables or passages of the source.

Tests used:
Format in all cases: in vitro ADME
[1] = Metabolic stability in pooled human liver microsomes with or without NADPH; conditions: human, pooled human liver microsomes, pooled human liver microsomes 0.5 mg/mL in PBS, 1 uM test compound, 37° C.
Protocol: Pooled human liver microsomes in PBS at a concentration of 0.5 mg/mL was incubated with or without 1 mM NADPH for 70 min at 37° C. Test compound was added after 10 minutes to a final concentration of 1 uM. Samples were withdrawn at 0, 5, 15 and 60 minutes and added to test tubes containing acetonitrile, to stop the reaction, and with terfenadine, used as internal standard. After centrifugation at 10000×g for 5 minutes the supernatant was diluted 1:1 with 1% formic acid. Samples were separated on a reverse phase column and detected by triple quadrupole MSMS (Agilant model 6540). The concentration of the parent compound at the different time points was measured with an external standard curve using terfenadine as internal standard and the initial metabolic rate in the presence or absence of NADPH calculated.

[2] = target: CYP2C9 (Homo sapiens, UniProt P11712); experiment: CYP inhibition in human liver microsomes (Eurofins protocol ITEMG232); parameters: using isoform-specific substrates incubated with human liver microsomes; tissue Eurofins ITEMG232; host or cells: human liver microsomes; conditions: probe diclofenac, substrate diclofenac, read-out: CYP2C9 Inh %
Protocol: (§1) The following substrates were used; CYP1A phenacetin, CYP2B6 bupropion, CYP2C8 paclitaxel and amodiaquine, CYP2C9 diclofenac, CYP2C19 omeprazole, CYP2D6 dextromethorphan, CYP3A midazolam and testosterone.
(§2) At the end of the incubation, the formation of metabolite was monitored by HPLC-MS/MS as the peak area response.

[3] = target: CYP3A4 (Homo sapiens, UniProt P08684); experiment: CYP inhibition in human liver microsomes (Eurofins protocol ITEMG232), midazolam substrate; parameters: using isoform-specific substrates incubated with human liver microsomes; tissue Eurofins ITEMG232; host or cells: human liver microsomes; conditions: probe midazolam, read-out: CYP3A4 midazolam Inh %
Protocol: as §1, §2

[4] = target: T1, CYP2B6 (Homo sapiens, UniProt P20813); experiment: CYP inhibition in human liver microsomes (Eurofins protocol ITEMG232); conditions: probe bupropion, substrate bupropion, read-out: CYP2B6 Inh %
T1 construct: using isoform-specific substrates incubated with human liver microsomes; tissue Eurofins ITEMG232; host or cells: human liver microsomes
T1 sequence (P20813 1-491): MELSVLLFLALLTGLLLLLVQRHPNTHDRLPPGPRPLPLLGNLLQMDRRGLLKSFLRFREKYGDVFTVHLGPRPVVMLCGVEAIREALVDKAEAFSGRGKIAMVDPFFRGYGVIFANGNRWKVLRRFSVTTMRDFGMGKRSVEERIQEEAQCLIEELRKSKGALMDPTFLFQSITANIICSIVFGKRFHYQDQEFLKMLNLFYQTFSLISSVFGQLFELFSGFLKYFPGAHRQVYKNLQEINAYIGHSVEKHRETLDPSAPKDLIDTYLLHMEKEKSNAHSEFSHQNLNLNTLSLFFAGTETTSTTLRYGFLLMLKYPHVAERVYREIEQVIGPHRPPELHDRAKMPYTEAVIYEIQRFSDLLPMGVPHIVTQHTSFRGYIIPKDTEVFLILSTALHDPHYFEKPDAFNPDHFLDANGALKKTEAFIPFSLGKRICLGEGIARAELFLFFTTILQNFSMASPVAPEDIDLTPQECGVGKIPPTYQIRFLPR
Protocol: as §1, §2

[5] = target: T2, CYP2C19 (Homo sapiens, UniProt P33261); experiment: as above; conditions: probe omeprazole, substrate omeprazole, read-out: CYP2C19 Inh %
T2 construct: using isoform-specific substrates incubated with human liver microsomes; tissue Eurofins ITEMG232; host or cells: human liver microsomes
Protocol: as §1, §2

[6] = target: T3, CYP2D6 (Homo sapiens, UniProt P10635); experiment: as above; conditions: probe dextromethorphan, substrate dextromethorphan, read-out: CYP2D6 Inh %
T3 construct: tissue Eurofins ITEMG232; host or cells: human liver microsomes
Protocol: as §1, §2

[7] = target: T4, CYP2C8 (Homo sapiens, UniProt P10632); experiment: as above; conditions: probe paclitaxel and amodiaquine, substrates paclitaxel and amodiaquine, read-out: CYP2C8 Inh %
T4 construct: using isoform-specific substrates incubated with human liver microsomes; tissue Eurofins ITEMG232; host or cells: human liver microsomes
T4 sequence (P10632 1-490): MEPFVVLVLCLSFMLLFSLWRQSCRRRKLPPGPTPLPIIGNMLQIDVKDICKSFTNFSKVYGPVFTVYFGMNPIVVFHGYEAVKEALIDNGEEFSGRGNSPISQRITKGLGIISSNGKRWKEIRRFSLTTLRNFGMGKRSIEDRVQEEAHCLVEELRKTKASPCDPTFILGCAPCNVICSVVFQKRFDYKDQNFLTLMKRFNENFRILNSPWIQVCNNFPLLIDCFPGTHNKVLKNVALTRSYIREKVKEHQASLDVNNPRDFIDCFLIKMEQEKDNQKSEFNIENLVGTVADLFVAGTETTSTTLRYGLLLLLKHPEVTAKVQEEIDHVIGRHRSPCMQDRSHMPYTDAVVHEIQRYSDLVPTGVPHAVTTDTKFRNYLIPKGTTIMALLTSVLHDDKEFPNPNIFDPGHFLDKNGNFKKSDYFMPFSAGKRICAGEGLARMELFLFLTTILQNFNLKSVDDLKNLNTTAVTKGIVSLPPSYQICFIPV
Protocol: as §1, §2

[8] = target: T5, CYP1A (Homo sapiens, UniProt P05177); experiment: as above; conditions: probe phenacetin, substrate phenacetin, read-out: CYP1A Inh %
T5 construct: using isoform-specific substrates incubated with human liver microsomes; tissue Eurofins ITEMG232; host or cells: human liver microsomes
T5 sequence (P05177 2-516 limits assumed): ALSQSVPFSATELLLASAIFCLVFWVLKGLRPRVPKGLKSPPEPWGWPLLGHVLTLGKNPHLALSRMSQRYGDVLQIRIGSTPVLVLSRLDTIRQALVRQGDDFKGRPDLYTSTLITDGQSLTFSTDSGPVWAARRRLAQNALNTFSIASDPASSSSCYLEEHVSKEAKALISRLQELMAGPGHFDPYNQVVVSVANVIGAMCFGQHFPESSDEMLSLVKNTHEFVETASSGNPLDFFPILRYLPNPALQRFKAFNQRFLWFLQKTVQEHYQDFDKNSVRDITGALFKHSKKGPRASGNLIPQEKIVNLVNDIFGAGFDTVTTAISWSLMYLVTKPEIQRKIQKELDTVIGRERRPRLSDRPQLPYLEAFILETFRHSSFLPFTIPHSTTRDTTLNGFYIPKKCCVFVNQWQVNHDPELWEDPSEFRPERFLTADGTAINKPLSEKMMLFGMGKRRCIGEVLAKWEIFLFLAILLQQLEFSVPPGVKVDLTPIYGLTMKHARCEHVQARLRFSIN
Protocol: as §1, §2

[9] = test system: CYP3A4&5; experiment: CYP inhibition in human liver microsomes (Eurofins protocol ITEMG232), testosterone substrate; conditions: probe testosterone, read-out: CYP3A4&5 testosterone Inh %
Protocol: as §1, §2

[10] = with 1 mM NADPH, read-out: T1/2, +NaDPH
[11] = without NADPH, read-out: T1/2, no NaDPH

Chain of CYP3A4 (P08684 whole entry, canonical isoform): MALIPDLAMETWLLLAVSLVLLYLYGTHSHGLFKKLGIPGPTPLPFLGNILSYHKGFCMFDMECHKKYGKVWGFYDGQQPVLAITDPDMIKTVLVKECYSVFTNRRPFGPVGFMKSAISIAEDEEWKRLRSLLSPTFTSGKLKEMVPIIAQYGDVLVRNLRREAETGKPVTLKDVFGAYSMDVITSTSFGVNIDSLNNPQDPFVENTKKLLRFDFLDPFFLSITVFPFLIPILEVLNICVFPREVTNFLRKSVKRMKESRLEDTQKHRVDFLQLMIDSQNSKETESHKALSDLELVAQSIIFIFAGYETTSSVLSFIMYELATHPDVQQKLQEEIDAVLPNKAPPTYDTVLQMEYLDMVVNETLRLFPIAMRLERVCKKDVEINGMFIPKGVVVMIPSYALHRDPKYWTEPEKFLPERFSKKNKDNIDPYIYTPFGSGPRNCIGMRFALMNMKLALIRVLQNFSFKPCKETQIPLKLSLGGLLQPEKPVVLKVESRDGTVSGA
T3 sequence (P10635 whole entry): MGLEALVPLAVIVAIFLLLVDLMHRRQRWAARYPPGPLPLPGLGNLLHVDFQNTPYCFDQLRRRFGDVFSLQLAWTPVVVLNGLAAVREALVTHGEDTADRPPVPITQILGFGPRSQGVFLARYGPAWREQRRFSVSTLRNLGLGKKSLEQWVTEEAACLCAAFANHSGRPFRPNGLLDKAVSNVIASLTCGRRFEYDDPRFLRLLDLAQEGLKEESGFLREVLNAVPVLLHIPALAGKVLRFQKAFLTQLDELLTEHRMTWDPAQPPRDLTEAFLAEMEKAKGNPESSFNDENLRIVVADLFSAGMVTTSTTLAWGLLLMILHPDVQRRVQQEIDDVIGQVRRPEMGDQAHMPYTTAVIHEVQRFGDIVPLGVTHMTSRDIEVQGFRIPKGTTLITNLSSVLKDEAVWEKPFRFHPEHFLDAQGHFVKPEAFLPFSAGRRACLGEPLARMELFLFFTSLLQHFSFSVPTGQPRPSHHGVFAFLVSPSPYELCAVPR
Chain of CYP2C9 (P11712 whole entry, canonical isoform): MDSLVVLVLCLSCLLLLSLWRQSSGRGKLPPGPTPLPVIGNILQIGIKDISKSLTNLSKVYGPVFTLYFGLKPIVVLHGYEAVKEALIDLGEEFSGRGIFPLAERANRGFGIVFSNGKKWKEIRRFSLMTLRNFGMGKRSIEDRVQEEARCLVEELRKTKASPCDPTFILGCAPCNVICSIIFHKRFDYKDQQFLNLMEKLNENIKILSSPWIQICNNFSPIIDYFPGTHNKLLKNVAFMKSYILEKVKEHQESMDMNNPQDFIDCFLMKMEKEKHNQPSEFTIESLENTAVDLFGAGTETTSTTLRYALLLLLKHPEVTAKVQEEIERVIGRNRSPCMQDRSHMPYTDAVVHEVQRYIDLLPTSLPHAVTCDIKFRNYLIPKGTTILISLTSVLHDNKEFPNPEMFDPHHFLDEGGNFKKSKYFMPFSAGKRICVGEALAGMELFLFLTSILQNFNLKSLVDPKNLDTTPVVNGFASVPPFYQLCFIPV
T2 sequence (P33261 whole entry, canonical isoform): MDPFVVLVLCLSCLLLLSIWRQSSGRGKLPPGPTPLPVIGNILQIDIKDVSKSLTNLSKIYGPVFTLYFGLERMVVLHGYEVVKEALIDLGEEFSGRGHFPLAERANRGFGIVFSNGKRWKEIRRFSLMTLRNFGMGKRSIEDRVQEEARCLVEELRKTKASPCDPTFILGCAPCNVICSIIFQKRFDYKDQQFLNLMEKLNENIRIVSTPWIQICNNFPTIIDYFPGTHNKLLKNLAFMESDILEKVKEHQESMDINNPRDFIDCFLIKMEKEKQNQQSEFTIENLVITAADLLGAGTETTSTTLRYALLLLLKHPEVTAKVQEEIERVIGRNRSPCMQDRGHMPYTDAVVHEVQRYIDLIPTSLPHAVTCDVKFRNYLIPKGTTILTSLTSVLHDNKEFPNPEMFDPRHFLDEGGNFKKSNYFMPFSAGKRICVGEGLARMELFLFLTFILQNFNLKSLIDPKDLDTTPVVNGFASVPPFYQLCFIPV

Compound	half-life at 1 uM [1, 10] [min]	half-life at 1 uM [1, 11] [min]	inhibition at 10 µM [2] [%]	inhibition at 10 µM [3] [%]	inhibition at 10 µM [4] [%]	inhibition at 10 µM [5] [%]	inhibition at 10 µM [6] [%]	inhibition at 10 µM [7] [%]	inhibition at 10 µM [8] [%]	inhibition at 10 µM [9] [%]
Cc1nccn1Cc1ccc(-c2cc(CC(C)C)sc2S(=O)(=O)NC(=O)C(C)(C)C)cc1F [Example 22, N-((3-(3-Fluoro-4-((2-methyl-1H-imidazol-1-yl)methyl)phenyl)-5-isobutylthiophen-2-yl)sulfonyl)pivalamide]	29	44	23.3	51.7	1.6	45.9	18.9	53.9	-15.3	23.8
Cc1nccn1Cc1ccc(-c2cc(CC(C)C)sc2S(=O)(=O)NC(=O)OCCO)cc1F.O=C(O)C(F)(F)F [Example 4, 2-Hydroxyethyl (3-(3-fluoro-4-((2-methyl-1H-imidazol-1-yl)methyl)phenyl)-5-isobutyl-thiophen-2-yl)sulfonylcarbamate trifluoroacetic acid]	> 60	> 60	58	-66	55	31	54	54	27	22
CCc1nccn1Cc1ccc(-c2cc(CC(C)C)sc2S(=O)(=O)NC(=O)OCCO)cc1F [Example 24, 2-Hydroxyethyl (3-(4-((2-ethyl-1H-imidazol-1-yl)methyl)-3-fluorophenyl)-5-isobutyl-thiophen-2-yl)sulfonylcarbamate]	> 60	> 60								
CC(C)Cc1cc(-c2ccc(Cn3ccnc3C(C)(C)C)c(F)c2)c(S(=O)(=O)NC(=O)OCCO)s1 [Example 17, 2-Hydroxyethyl (3-(4-((2-(tert-butyl)-1H-imidazol-1-yl)methyl)-3-fluorophenyl)-5-isobutylthiophen-2-yl)sulfonylcarbamate]			36.8	-20.6	33.8	53.1	73.4	78.6	29.9	3.7
CC(C)Cc1cc(-c2ccc(Cn3ccnc3C(C)(C)C)c(F)c2)c(S(=O)(=O)NC(=O)OCC(C)(C)O)s1 [Example 23, 2-Hydroxy-2-methylpropyl (3-(4-((2-(tert-butyl)-1H-imidazol-1-yl)methyl)-3-fluoro-Phenyl)-5-isobutylthiophen-2-yl)sulfonylcarbamate]			47	-14.1	16.8	51.2	5.8	74.7	16.7	12.5
CCc1nccn1Cc1ccc(-c2cc(CC(C)C)sc2S(=O)(=O)NC(=O)OCCC(F)(F)F)cc1F.O=C(O)C(F)(F)F [Example 5, 3,3,3-Trifluoropropyl (3-(4-((2-ethyl-1H-imidazol-1-yl)methyl)-3-fluorophenyl)-5-iso-butyl-thiophen-2-yl)sulfonylcarbamate trifluoroacetic acid]	18	55	71	-24	37	63	49	64	35	5
COC(=O)NS(=O)(=O)c1sc(CC(C)C)cc1-c1ccc(Cn2ccnc2C(C)(C)C)c(F)c1 [Example 20, Methyl (3-(4-((2-(tert-butyl)-1H-imidazol-1-yl)methyl)-3-fluorophenyl)-5-isobutylthiophen-2-yl)sulfonylcarbamate]			57.9	-56.9	32.6	45.6	22.3	90.5	46	-4.8
COC(=O)NS(=O)(=O)c1sc(CC(C)C)cc1-c1ccc(Cn2ccnc2C)c(F)c1 [Example 21, Methyl (3-(3-fluoro-4-((2-methyl-1H-imidazol-1-yl)methyl)phenyl)-5-isobutyl-thio-phen-2-yl)sulfonylcarbamate]	> 60	> 60	51.4	-48	16.6	13.8	16.3	44.2	58.7	8
CCCCOC(=O)NS(=O)(=O)c1sc(CC(C)C)cc1-c1ccc(Cn2ccnc2C)c(F)c1 [Example 2, Butyl (3-(3-fluoro-4-((2-methyl-1H-imidazol-1-yl)methyl)phenyl)-5-isobutylthiophen-2-yl)sulfonylcarbamate trifluoroacetic acid]			70	-15	41	55	22	80	19	21
CCc1nccn1Cc1ccc(-c2cc(CC(C)C)sc2S(=O)(=O)NC(=O)OC)cc1F [Example 25, Methyl (3-(4-((2-ethyl-1H-imidazol-1-yl)methyl)-3-fluorophenyl)-5-isobutylthiophen-2-yl)sulfonylcarbamate]	> 60	> 60	50.4	-28.7	20	0.5	17.1	21.9	23.5	26.6
